Laboratory results from the supplement of paper PMC11061612.

Legend:
[1] = compound: CCN(CCO)CCCOc1ccc2c(Nc3cc(CC(=O)Nc4cccc(F)c4)[nH]n3)ncnc2c1 [AZD2811]; details: max 1 µM
Summary of the method: (§1)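 Cancer cell lines were seeded in 1536-well plates in 7.5 μl DMEM/F12 or RPMI with 10% FBS, held 24 hours at 37°C and 5% CO2, then dosed for 72 hours (final DMSO typically 0.2%). Viability was read by CellTiter-Glo 2.0 luminescence and scaled between blank-well and DMSO-well means. The single-agent IC50 comes from dose responses fitted to a two-parameter logistic curve with a non-linear mixed effects model.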

[2] = compound: CCc1c2c(nc3ccc(O)cc13)-c1cc3c(c(=O)n1C2)COC(=O)[C@]3(O)CC [SN-38]; details: max 0.3 µM
Summary of the method: as §1

[3] = compound: Cc1c2c(nn1C)CSCc1cc(n(C)n1)CSc1cc(c3ccccc3c1)OCCCc1c(C(=O)O)n(C)c3c-2c(Cl)ccc13 [AZD5991]; details: max 1 µM
Summary of the method: as §1

[4] = compound: COc1cc2ncnc(Nc3ccc(F)c(Cl)c3)c2cc1OCCCN1CCOCC1 [Gefitinib]; details: max 10 µM
Summary of the method: as §1

[5] = compound: CS(=O)(=O)CCNCc1ccc(-c2ccc3ncnc(Nc4ccc(OCc5cccc(F)c5)c(Cl)c4)c3c2)o1 [Lapatinib]; details: max 10 µM
Summary of the method: as §1

[6] = compound: COc1nnc2ccc(N3CCC(c4ccc(OCCN5CCN(C)C(=O)[C@H]5C)cc4)CC3)nn12 [AZD5153]; details: max 1 µM
Summary of the method: as §1

[7] = compound: C1CC(C1)(C(=O)[O-])C(=O)[O-].N.N.[Pt+2] [Carboplatin]; details: max 10 µM
Summary of the method: as §1

[8] = compound: CN(CC[C@H](CSC1=CC=CC=C1)NC2=C(C=C(C=C2)S(=O)(=O)NC(=O)C3=CC=C(C=C3)N4CCC(CC4)[C@H](C5=CC=CC=C5C6=CC=C(C=C6)Cl)O)S(=O)(=O)C(F)(F)F)CCO [AZD4320]; details: max 1 µM
Summary of the method: as §1

[9] = compound: O=C(Nc1ccc2[nH]nc(-c3ccncc3)c2c1)[C@@H]1CCN(CC(=O)N2CCN(c3ccc(-c4ncccn4)cc3)CC2)C1; details: max 5 µM
Summary of the method: as §1

[10] = compound: COc1cc([C@@H]2c3cc4c(cc3[C@@H](O[C@@H]3O[C@@H]5CO[C@@H](C)O[C@H]5[C@H](O)[C@H]3O)[C@H]3COC(=O)[C@H]23)OCO4)cc(OC)c1O [Etoposide]; details: max 10 µM
Summary of the method: as §1

[11] = compound: O=c1[nH]cc(F)c(=O)[nH]1 [5-Fluorouracil]; details: max 20 µM
Summary of the method: as §1

[12] = compound: COc1cccc(OCCCN)c1-c1cc(Nc2cnc(C#N)cn2)n[nH]1 [Prexasertib]; details: max 1 µM
Summary of the method: as §1

[13] = compound: C[C@@H](Oc1cc(-c2cnn(C3CCNCC3)c2)cnc1N)c1c(Cl)ccc(F)c1Cl [Crizotinib]; details: max 10 µM
Summary of the method: as §1

[14] = compound: CC(=O)O[C@H]1C(=O)[C@@]2(C)[C@H]([C@H](OC(=O)c3ccccc3)[C@]3(O)C[C@H](OC(=O)[C@H](O)[C@@H](NC(=O)c4ccccc4)c4ccccc4)C(C)=C1C3(C)C)[C@]1(OC(C)=O)CO[C@@H]1C[C@@H]2O [Paclitaxel]; details: max 3 µM
Summary of the method: as §1

[15] = compound: Nc1ccn([C@@H]2O[C@H](CO)[C@@H](O)C2(F)F)c(=O)n1 [Gemcitabine]; details: max 0.3 µM
Summary of the method: as §1

[16] = compound: C1CN(CCC1(C(=O)N[C@@H](CCO)C2=CC=C(C=C2)Cl)N)C3=NC=NC4=C3C=CN4 [AZD5363]; details: max 10 µM
Summary of the method: as §1

[17] = compound: Cc1cc2ncnn2cc1Nc1ncc2c(n1)n(C1CCOCC1)c(=O)n2C [AZD7648]; details: max 10 µM
Summary of the method: as §1

[18] = compound: COc1cc(Nc2ncc3c(n2)-c2ccc(Cl)cc2C(c2c(F)cccc2OC)=NC3)ccc1C(=O)O [Alisertib]; details: max 10 µM
Summary of the method: as §1

[19] = compound: Cn1cnc2c(F)c(Nc3ccc(Br)cc3Cl)c(C(=O)NOCCO)cc21 [Selumetinib]; details: max 10 µM
Summary of the method: as §1

[20] = compound: CC(C)n1c(=O)n(C)c2cnc3cc(F)c(-c4ccc(OCCCN5CCCCC5)nc4)cc3c21 [AZD1390]; details: max 0.3 µM
Summary of the method: as §1

[21] = compound: C[C@@H](c1ccc2nccn2c1)n1nnc2ncc(-c3cnn(C)c3)nc21 [Savolitinib]; details: max 1 µM
Summary of the method: as §1

[22] = compound: C=CCn1c(=O)c2cnc(Nc3ccc(N4CCN(C)CC4)cc3)nc2n1-c1cccc(C(C)(C)O)n1 [AZD1775]; details: max 3 µM
Summary of the method: as §1

[23] = compound: COc1cccc2c1C(=O)c1c(O)c3c(c(O)c1C2=O)C[C@@](O)(C(=O)CO)C[C@@H]3O[C@H]1C[C@H](N)[C@H](O)[C@H](C)O1 [Doxorubicin]; details: max 1 µM
Summary of the method: as §1

[24] = compound: CN(C)CCCOc1ccc(-c2ccc3ncc4c(c3c2)n(C2CCOCC2)c(=O)n4C)cn1 [AZD0156]; details: max 3 µM
Summary of the method: as §1

[25] = compound: C[C@@H](Nc1cc(F)cc(F)c1)c1cc(C(=O)N(C)C)cc2c(=O)cc(N3CCOCC3)oc12 [AZD8186]; details: max 10 µM
Summary of the method: as §1

[26] = compound: CC(=O)Nc1cccc(-n2c(=O)n(C3CC3)c(=O)c3c(Nc4ccc(I)cc4F)n(C)c(=O)c(C)c32)c1 [Trametinib]; details: max 1 µM
Summary of the method: as §1

[27] = compound: CC1=CN2[C@@H](C1)C=NC3=CC(=C(C=C3C2=O)OC)OCCCCCOC4=C(C=C5C(=C4)N=C[C@@H]6CC(=CN6C5=O)C)OC [SG3199]; details: max 0.001 µM
Summary of the method: as §1

[28] = compound: CC(=O)c1c(C)c2cnc(Nc3ccc(N4CCNCC4)cn3)nc2n(C2CCCC2)c1=O [Palbociclib]; details: max 10 µM
Summary of the method: as §1

[29] = compound: CC1(C)CCC(CN2CCN(c3ccc(C(=O)NS(=O)(=O)c4ccc(NCC5CCOCC5)c([N+](=O)[O-])c4)c(Oc4cnc5[nH]ccc5c4)c3)CC2)=C(c2ccc(Cl)cc2)C1 [Venetoclax]; details: max 1 µM
Summary of the method: as §1

[30] = compound: CC1=C(C(=CC=C1)Cl)NC(=O)C2=CN=C(S2)NC3=CC(=NC(=N3)C)N4CCN(CC4)CCO [Dasatinib]; details: max 2 µM
Summary of the method: as §1

[31] = compound: O=C(c1cc(Cc2n[nH]c(=O)c3ccccc23)ccc1F)N1CCN(C(=O)C2CC2)CC1 [Olaparib]; details: max 10 µM
Summary of the method: as §1

[32] = compound: Cc1nc(-c2cn3c(n2)-c2ccc(-c4cnn(C(C)(C)C(N)=O)c4)cc2OCC3)n(C(C)C)n1 [Taselisib]; details: max 10 µM
Summary of the method: as §1

[33] = compound: N#Cc1cnc(Nc2cc(NC[C@H]3CNCCO3)c(C(F)(F)F)cn2)cn1 [SRA737]; details: max 10 µM
Summary of the method: as §1

[34] = compound: C[C@@H]1COCCN1C2=NC(=NC(=C2)C3(CC3)[S@](=N)(=O)C)C4=C5C=CNC5=NC=C4 [AZD6738]; details: max 10 µM
Summary of the method: as §1

[35] = compound: NC1(c2ccc(-c3nc4ccn5c(=O)[nH]nc5c4cc3-c3ccccc3)cc2)CCC1 [MK-2206]; details: max 10 µM
Summary of the method: as §1

| Cell Line | IC50, cell viability 72 h [1] | IC50, cell viability 72 h [2] | IC50, cell viability 72 h [3] | IC50, cell viability 72 h [4] | IC50, cell viability 72 h [5] | IC50, cell viability 72 h [6] | IC50, cell viability 72 h [7] | IC50, cell viability 72 h [8] | IC50, cell viability 72 h [9] | IC50, cell viability 72 h [10] | IC50, cell viability 72 h [11] | IC50, cell viability 72 h [12] | IC50, cell viability 72 h [13] | IC50, cell viability 72 h [14] | IC50, cell viability 72 h [15] | IC50, cell viability 72 h [16] | IC50, cell viability 72 h [17] | IC50, cell viability 72 h [18] | IC50, cell viability 72 h [19] | IC50, cell viability 72 h [20] | IC50, cell viability 72 h [21] | IC50, cell viability 72 h [22] | IC50, cell viability 72 h [23] | IC50, cell viability 72 h [24] | IC50, cell viability 72 h [25] | IC50, cell viability 72 h [26] | IC50, cell viability 72 h [27] | IC50, cell viability 72 h [28] | IC50, cell viability 72 h [29] | IC50, cell viability 72 h [30] | IC50, cell viability 72 h [31] | IC50, cell viability 72 h [32] | IC50, cell viability 72 h [33] | IC50, cell viability 72 h [34] | IC50, cell viability 72 h [35] |
| --- | --- | --- | --- | --- | --- | --- | --- | --- | --- | --- | --- | --- | --- | --- | --- | --- | --- | --- | --- | --- | --- | --- | --- | --- | --- | --- | --- | --- | --- | --- | --- | --- | --- | --- | --- |
| OCUB-M (Breast Carcinoma) | 0.0734 µM | 0.0492 µM | 0.104 µM | > 10 µM | 4.79 µM | > 1 µM | > 10 µM | 0.878 µM | > 5 µM | 0.634 µM | > 20 µM | 0.463 µM | > 10 µM | 0.00926 µM | 0.0911 µM | 0.429 µM | > 10 µM | 2.81 µM | > 10 µM | > 0.3 µM | > 1 µM | > 3 µM | 0.241 µM | > 3 µM | > 10 µM | > 1 µM | > 0.001 µM | > 10 µM | > 1 µM | > 2 µM | > 10 µM | 0.109 µM | > 10 µM | > 10 µM | 1.22 µM |
| OCUM-1 (Gastric Carcinoma) | > 1 µM | 0.0486 µM | > 1 µM | > 10 µM | > 10 µM | 0.645 µM | > 10 µM | 0.571 µM | 0.0359 µM | > 10 µM | > 20 µM | 0.0781 µM | > 10 µM | 2.62 µM | 0.11 µM | 8.9 µM | > 10 µM | > 10 µM | 0.063 µM | > 0.3 µM | > 1 µM | 1.51 µM | > 1 µM | > 3 µM | > 10 µM | 0.00185 µM | > 0.001 µM | > 10 µM | > 1 µM | > 2 µM | > 10 µM | > 10 µM | > 10 µM | 2.95 µM | > 10 µM |
| SCC-9 (Oral Cavity Carcinoma) | > 1 µM | > 0.3 µM | > 1 µM | > 10 µM | 5.06 µM | > 1 µM | > 10 µM | > 1 µM | > 5 µM | > 10 µM | > 20 µM | > 1 µM | > 10 µM | 0.284 µM | > 0.3 µM | > 10 µM | > 10 µM | > 10 µM | > 10 µM | > 0.3 µM | > 1 µM | 2.83 µM | > 1 µM | > 3 µM | > 10 µM | > 1 µM | > 0.001 µM | > 10 µM | > 1 µM | 1.15 µM | > 10 µM | 2.14 µM | > 10 µM | > 10 µM | > 10 µM |
